From the NIST ThermoML archive (doi:10.1021/je200350a)

Assay: xn = mol fraction of the nth substance listed
Conditions: 101 kPa, Liquid; for viscosity: Capillary tube (Ostwald / Ubbelohde) method

CCCCBr [1-bromobutane] + O=[N+]([O-])c1ccccc1
Conditions	mass density, 293.15 K [kg/m3]	mass density, 298.15 K [kg/m3]	mass density, 303.15 K [kg/m3]	mass density, 308.15 K [kg/m3]	viscosity, 293.15 K [mPa·s]	viscosity, 298.15 K [mPa·s]	viscosity, 303.15 K [mPa·s]	viscosity, 308.15 K [mPa·s]
x2 = 0.123	1270.9	1263.5	1256.5	1249	0.7256	0.6851	0.6486	0.615
x2 = 0.2445	1262.8	1256.6	1249.8	1242.4	0.8243	0.7761	0.7321	0.692
x2 = 0.3645	1253.7	1247.1	1240.8	1234.3	0.9397	0.8811	0.828	0.7802
x2 = 0.424	1249.7	1244	1238	1230.7	0.9936	0.9308	0.8743	0.8225
x2 = 0.542	1240.8	1234.4	1228.2	1222.2	1.131	1.055	0.986	0.925
x2 = 0.6585	1229.4	1223.8	1218.5	1212.4	1.281	1.19	1.109	1.037
x2 = 0.7737	1220.6	1214.7	1209.9	1205.1	1.477	1.364	1.266	1.18
x2 = 0.8875	1211.5	1206.6	1201.6	1196	1.703	1.566	1.447	1.34
x2 = 0.9439	1206.7	1201.6	1196.5	1191.2	1.835	1.682	1.548	1.43
